Assay results as given in patent US20220096515A1, “Methods and Formulations for Preventing Neurological or Psychiatric Disorders” (Huntington Medical Research Institutes, priority 2020, published 2022).

What was measured:
[1] = system: periventricular endothelial cells isolated from E15 wildtype (CD1) forebrain; assay: Tube formation under normal culture conditions (no Matrigel); type: cell-based, mouse; details: absence of Matrigel
Procedure: (§1) Primary culture of endothelial cells and endothelial cell staining: Embryonic brains were dissected under a stereo-microscope, after the NAD^+ treatment paradigm and the telencephalon was removed. Pial membranes were peeled off. Telencephalon without pial membranes from the periventricular region was pooled. Purity of endothelial cell cultures was established with endothelial cell markers and determined to be one hundred percent. Isolation and culture of endothelial cells were performed according to published methodology. Periventricular endothelial cells were prepared from CD1 (wild type), saline-treated Gabrb3^fl/fl, saline-treated Gabrb3^ECKO, and NAD^+-treated Gabrb3^ECKO embryos. Endothelial cells were labeled with anti-biotinylated isolectinB4 (1:100, Sigma), anti-GABA (1:400, Sigma), anti-DAXX (1:100, Santa Cruz Biotechnology) and anti-P2X4 (1:100, Abclonal) followed by secondary detection with AlexaFluor conjugates (Invitrogen). DAPI (Invitrogen) was used to label nuclei. Images were taken on an FSX100 microscope (Olympus). 1 million cells were examined for each immunohistochemistry condition.
In one experiment, periventricular endothelial cells were isolated from E15 wildtype (CD1) forebrain and tested the effect of NAD^+ addition in vitro. […]

Gabrb3^ECKO mice = assay: Open field locomotor activity; type: in vivo, mouse; details: 60 minutes; between the three groups
Procedure: (§2) Behavioral Experiments: Mice were housed in our animal facility with a 12-hour light cycle with ad libitum access to food and water. Offspring stayed with their mothers until weaning at PND 21 after which males and females were separated. Before all behavioral testing, mice were acclimated to the testing room for 1 hour. Behavioral assays were performed according to established protocols referenced here: self-grooming, light-dark box, tail suspension test, Y-maze, open field locomotion activity, three chamber social interaction test and nest building with nestlets and with shredded paper. Both males and females were used for all behavioral assays. Experimenters scoring behaviors were blinded to the genotypes and treatment. Sample sizes for each assay are noted in figure legends.
Anxiety was next assessed with the classic light-dark transition test which triggers a struggle between the desires to explore a novel environment versus natural aversion of a brightly illuminated open space. […] The Y maze spontaneous alternation test was used to evaluate for spatial learning and memory in the three groups of mice. After introduction to the center of the maze, the mice were given free access to all three arms. […] The total number of arm entries and the sequence of entries are recorded in order to calculate the percentage of alternation. […]

[2] = system: periventricular endothelial cells isolated from E15 wildtype (CD1) forebrain; assay: Endothelial cell proliferation in culture (confluency, BrdU labeling index); type: cell-based, mouse
Procedure: as §1
Endothelial cell proliferation and long-distance cell migration assay: To test for cell proliferation, CD1 periventricular endothelial cells (1 million cells per experiment) were incubated in the presence of the mitotic marker 5-bromo-2′-deoxyuridine (0.05% BrdU) with or without muscimol, for 1 hour to examine the impact on proliferation of these cells and processed for BrdU immunohistochemistry.
In one experiment, periventricular endothelial cells were isolated from E15 wildtype (CD1) forebrain and tested the effect of NAD^+ addition in vitro. Exogenous addition of 100 μM NAD^+ was able to initiate significant endothelial cell proliferation within 2 days of culture and a 35 mm culture dish was confluent within 4-6 days (FIGS. 2A-2D). This was an interesting observation, since untreated periventricular endothelial cells take approximately 12 days to reach confluency in 35mm dishes, in our well-established culture conditions. […] Vital elements of angiogenesis include effective endothelial cell proliferation, migration, sprouting, alignment, tube formation and branching. […] In some areas of the dish, the NAD^+-treated endothelial cells seemed to align and fold into tubular shapes (FIG. 2H), aspects that we have not seen in wild type or untreated periventricular endothelial cells in normal culture conditions.
Effects of NAD^+ addition to periventricular endothelial cells isolated from E15 wildtype (CD1) forebrain was more robust than GABA. (FIGS. 17A-17F) Phase contrast images of periventricular endothelial cells cultured from E15 CD1 forebrain at different time points in untreated conditions (FIGS. 17A-17B) or after plating with NAD^+ addition (100 μM; FIGS. 17C-17D) or GABA addition (5 μM; FIGS. 17E-17F). […] (FIG. 17G) All groups of periventricular endothelial cells were exposed to BrdU (1 mM BrdU per ml medium) for 1 hour followed by Isolectin B4/BrdU double labeling. Quantification of BrdU labeling indices; Data represents mean±SD (n=8, *P<0.05; Student's t-test).

Gabrb3^fl/fl mice = assay: Nesting and grooming behavior of NAD+ treated Gabrb3^fl/fl mice; type: in vivo, mouse; details: NAD+ vs saline treated Gabrb3^fl/fl mice
Procedure: Certain embodiments treat an individual at a dosage of approximately 10 mg/kg—for example, for a 60-70 kg human, a dosage would be approximately 600-700 mg. Some embodiments treat at a dosage higher than 10 mg/kg, such as up to 40 mg/kg. In many embodiments excess NAD+ may be removed from the body without deleterious effects. FIGS. 1D-1F illustrate exemplary data showing no deleterious effects from treating wildtype mice with NAD+. […] As excess NAD+ may be removed without significant effect to a treated individual, some embodiments treat a person prophylactically.
as §2

[3] = system: CD1 derived endothelial cells, purified from the periventricular plexus; assay: Long-distance endothelial cell migration assay; type: cell-based, mouse; details: vs untreated cells
Procedure: In preparation for long-distance cell migration assays, square culture inserts (ibidi GmbH) were placed at one end of a 35 mm dish. Cultures of CD1 derived endothelial cells, purified from the periventricular plexus, were plated in the insert and allowed to migrate for 24 hours in endothelial cell culture medium. Endothelial cells were labeled with cell trace marker (CellLight Plasma Membrane-RFP, BacMam 2.0, Invitrogen) to visualize endothelial cell morphologies during subsequent imaging. The migration of endothelial cells from one end of the dish to the other spanning a distance of 3.5 cm was imaged and quantified.
In one experiment, periventricular endothelial cells were isolated from E15 wildtype (CD1) forebrain and tested the effect of NAD^+ addition in vitro. Exogenous addition of 100 μM NAD^+ was able to initiate significant endothelial cell proliferation within 2 days of culture and a 35 mm culture dish was confluent within 4-6 days (FIGS. 2A-2D). This was an interesting observation, since untreated periventricular endothelial cells take approximately 12 days to reach confluency in 35mm dishes, in our well-established culture conditions. […] Vital elements of angiogenesis include effective endothelial cell proliferation, migration, sprouting, alignment, tube formation and branching. […]

NC(=O)c1ccc[n+]([C@@H]2O[C@H](COP(=O)([O-])OP(=O)(O)OC[C@H]3O[C@@H](n4cnc5c(N)ncnc54)[C@H](O)[C@@H]3O)[C@@H](O)[C@H]2O)c1 [NAD^+]
tube formation [1]: started showing tube formation properties under normal culture conditions | open field locomotor activity (Gabrb3^ECKO mice): no significant differences | endothelial cell proliferation (phase contrast) ([2]; 100 μM): Robust proliferation | time to initiate significant endothelial cell proliferation ([2]; 100 μM NAD^+, days of culture): ≤ 2 days | time until 35 mm culture dish was confluent ([2]; 100 μM NAD^+, untreated cells approximately 12 days): 4 to 6 days | endothelial cell BrdU labeling index ([2]; NAD^+ addition vs untreated): significantly increased | grooming behavior (Gabrb3^fl/fl mice): no significant change in grooming behavior | nesting behavior (Gabrb3^fl/fl mice; untorn nestlet and shredded paper): no significant difference in nesting behavior | long-distance migration of endothelial cells (cell number) [3]: robust long-distance migration
